# Measurements reported in the supplement of paper PMC10307832.
# Experiments:
# Assay in all cases: relative viability (nuclei count vs DMSO), 5 days (fraction); higher = more cells survive
# [1] = compound: C1=CC2=NC=CN=C2C=C1/C=C/3\C(=O)NC(=O)S3 + C[C@@H](Oc1cc(-c2cnn(C3CCNCC3)c2)cnc1N)c1c(Cl)ccc(F)c1Cl [Crizotinib] (partner 1 µM)
# Summary of the method: (§1)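 Lung cancer cell lines in 1536-well plates got either a single drug or a fixed anchor-drug dose together with five library-drug doses (not always all listed) in √10 steps, by pin tool, on the day after seeding. Nuclei were counted after 5 days, and relative viability is the treated-to-vehicle ratio of nuclei counts. Values are medians of duplicate plates.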
# [2] = compound: C1=CC2=NC=CN=C2C=C1/C=C/3\C(=O)NC(=O)S3 + C[C@]1(O)C[C@@H](c2nc(-c3ccc4ccc(-c5ccccc5)nc4c3)c3c(N)nccn32)C1 [Linsitinib] (partner 1 µM)
# Summary of the method: as §1
# BGJ398 + Palbociclib = compound: CCN1CCN(c2ccc(Nc3cc(N(C)C(=O)Nc4c(Cl)c(OC)cc(OC)c4Cl)ncn3)cc2)CC1 [BGJ398] + CC(=O)c1c(C)c2cnc(Nc3ccc(N4CCNCC4)cn3)nc2n(C2CCCC2)c1=O [Palbociclib] (partner 0.5 µM)
# Summary of the method: as §1
# BGJ398 + Decitabine = compound: CCN1CCN(c2ccc(Nc3cc(N(C)C(=O)Nc4c(Cl)c(OC)cc(OC)c4Cl)ncn3)cc2)CC1 [BGJ398] + Nc1ncn([C@H]2C[C@H](O)[C@@H](CO)O2)c(=O)n1 [Decitabine] (partner 2 µM)
# Summary of the method: as §1
Cell Line,relative viability ([1]; first compound 0.02 µM),relative viability ([1]; first compound 0.06325 µM),relative viability ([1]; first compound 0.2 µM),relative viability ([1]; first compound 0.6325 µM),relative viability ([1]; first compound 2 µM),relative viability ([2]; first compound 0.02 µM),relative viability ([2]; first compound 0.06325 µM),relative viability ([2]; first compound 0.2 µM),relative viability ([2]; first compound 0.6325 µM),relative viability ([2]; first compound 2 µM),relative viability (BGJ398 + Palbociclib; first compound 0.01 µM),relative viability (BGJ398 + Palbociclib; first compound 0.03162 µM),relative viability (BGJ398 + Palbociclib; first compound 0.1 µM),relative viability (BGJ398 + Palbociclib; first compound 0.3162 µM),relative viability (BGJ398 + Palbociclib; first compound 1 µM),relative viability (BGJ398 + Decitabine; first compound 0.01 µM),relative viability (BGJ398 + Decitabine; first compound 0.03162 µM),relative viability (BGJ398 + Decitabine; first compound 0.1 µM),relative viability (BGJ398 + Decitabine; first compound 0.3162 µM),relative viability (BGJ398 + Decitabine; first compound 1 µM)
201T,0.995,1.07,1.06,0.994,1.06,0.807,1.07,0.997,0.949,1.01,0.387,0.358,0.356,0.349,0.268,0.958,0.814,0.835,0.797,0.807
A549,0.791,0.901,0.782,0.671,0.646,0.648,0.682,0.627,0.546,0.6,,,,,,0.155,0.288,0.232,0.289,0.223
A-427,0.848,0.792,0.939,0.866,0.843,1.07,1.16,1.12,1.14,1.07,0.524,0.488,0.49,0.435,0.393,0.559,0.564,0.594,0.515,0.481
ABC-1,1.15,1.05,1.21,0.91,1.09,0.76,0.761,0.758,1.01,0.804,0.647,0.593,0.584,,0.945,1.17,0.955,0.966,,1.18
BEN,0.948,0.856,0.929,0.795,0.871,0.812,0.922,0.899,0.843,0.93,0.522,0.457,0.43,0.481,0.401,0.604,0.688,0.796,0.681,0.591
CAL-12T,0.572,0.802,0.901,0.661,0.683,0.679,0.844,0.953,0.881,0.839,0.44,0.504,0.516,0.49,0.352,,,,,
COR-L23,0.65,0.649,0.576,0.582,0.699,0.874,0.89,0.978,0.861,0.951,0.299,0.332,0.269,0.288,0.273,0.36,0.438,0.507,0.42,0.365
COR-L 105,0.613,0.887,0.905,0.814,0.711,0.897,0.949,0.947,0.851,1.03,0.47,0.357,0.445,0.378,0.383,0.636,0.587,0.637,0.601,0.69
Calu-6,0.781,0.744,0.758,0.704,0.781,0.946,1.13,1.05,0.899,0.876,,,,,,,,,,
ChaGo-K-1,1.02,0.613,1.12,1.07,1.02,,,,,,0.914,0.959,0.944,0.962,0.923,0.503,0.477,0.562,0.558,0.537
EBC-1,0.17,0.217,0.21,0.178,0.171,0.88,1.22,0.922,0.953,0.925,,,,,,,,,,
EKVX,0.933,0.905,0.975,0.833,0.898,0.772,0.845,0.983,0.981,0.945,0.436,0.291,0.384,0.359,0.394,0.315,0.294,0.388,0.349,0.316
EMC-BAC-2,0.733,0.767,0.76,0.661,0.763,0.765,0.906,0.822,0.808,0.869,0.497,0.558,0.547,0.568,0.516,0.96,1.03,0.97,0.915,0.932
EPLC-272H,1.12,1.09,1.12,0.782,1.13,1.09,1.25,1.25,1.1,1.26,0.32,0.314,0.324,0.359,0.358,0.391,0.3,0.38,0.303,0.323
H3255,0.851,0.929,0.746,0.916,0.886,0.81,0.968,0.967,0.897,0.96,0.281,0.321,0.314,0.315,0.314,0.585,,0.591,,0.681
HARA,0.973,1.06,1.09,1.01,1.21,0.96,0.829,1.08,0.942,0.975,0.242,0.257,0.228,0.289,0.188,0.587,0.412,0.389,0.371,0.38
HCC-15,0.822,0.897,0.817,0.747,0.716,0.824,0.868,0.912,0.861,0.885,0.713,0.743,0.79,0.769,0.753,0.571,0.6,0.78,0.73,0.618
HCC-44,0.721,0.808,0.807,0.836,0.575,0.691,0.628,0.675,0.607,0.674,0.919,0.962,1.03,1.02,0.856,0.886,0.914,0.959,0.976,0.8
HCC-78,0.341,0.309,0.296,0.337,0.25,0.488,0.517,0.54,0.497,0.403,0.44,0.472,0.492,0.455,0.459,0.616,0.701,0.682,0.777,0.695
HCC-366,0.441,0.306,0.605,0.441,0.409,0.636,0.832,0.734,0.501,0.638,0.435,0.415,0.422,0.388,0.476,0.336,0.371,0.355,0.306,0.347

Cell Line,relative viability ([1]; first compound 0.02 µM),relative viability ([1]; first compound 0.06325 µM),relative viability ([1]; first compound 0.2 µM),relative viability ([1]; first compound 0.6325 µM),relative viability ([1]; first compound 2 µM),relative viability ([2]; first compound 0.02 µM),relative viability ([2]; first compound 0.06325 µM),relative viability ([2]; first compound 0.2 µM),relative viability ([2]; first compound 0.6325 µM),relative viability ([2]; first compound 2 µM),relative viability (BGJ398 + Palbociclib; first compound 0.01 µM),relative viability (BGJ398 + Palbociclib; first compound 0.03162 µM),relative viability (BGJ398 + Palbociclib; first compound 0.1 µM),relative viability (BGJ398 + Palbociclib; first compound 0.3162 µM),relative viability (BGJ398 + Palbociclib; first compound 1 µM),relative viability (BGJ398 + Decitabine; first compound 0.01 µM),relative viability (BGJ398 + Decitabine; first compound 0.03162 µM),relative viability (BGJ398 + Decitabine; first compound 0.1 µM),relative viability (BGJ398 + Decitabine; first compound 0.3162 µM),relative viability (BGJ398 + Decitabine; first compound 1 µM)
HCC-827,0.89,0.905,0.933,0.804,1.03,0.944,0.928,1,0.935,0.884,0.26,,0.469,0.45,0.518,0.286,,0.332,0.185,0.27
HOP-62,1.1,0.953,1.03,0.93,0.911,1.04,0.982,1.1,1.01,1.06,0.464,0.509,0.537,0.473,0.492,0.232,0.245,0.204,0.225,0.215
IA-LM,0.654,,0.857,0.998,0.718,0.516,0.729,0.607,0.606,0.694,,,,,,,,,,
LC-2-ad,0.412,0.363,0.402,0.44,0.715,0.76,0.885,0.784,0.726,0.854,0.477,0.516,0.5,0.524,0.499,0.699,0.855,0.899,0.771,0.852
LCLC-97TM1,0.391,0.344,0.375,0.354,0.218,0.23,0.188,0.203,0.162,0.145,0.177,0.221,0.262,0.197,0.267,0.238,0.222,0.214,0.216,0.225
LCLC-103H,1.08,0.943,1.06,1.03,0.925,1.05,0.799,1.03,0.976,1.08,0.42,0.497,0.457,0.478,0.518,0.714,0.631,0.67,0.628,0.566
NCI-H522,,,,,,,,,,,1.13,1.07,1.06,0.932,0.859,0.665,0.625,0.685,0.665,0.644
NCI-H596,0.976,0.87,1.06,0.989,1,1.01,0.994,1.11,0.975,1.07,,,,,,1.15,0.885,0.977,0.991,0.778
NCI-H1299,0.955,1.03,0.932,0.89,0.986,0.841,1.1,0.985,0.919,0.927,,,,,,,,,,
NCI-H1395,,,,,,1.37,1.28,1.25,0.939,1.14,0.603,0.587,0.464,0.458,0.481,0.684,0.692,0.609,0.648,0.649
NCI-H1563,0.842,0.898,0.86,0.861,0.831,1.19,1.23,1.12,1.1,1.3,,,,,,,,,,
NCI-H1648,,,,,,,,,,,0.266,,0.256,0.273,0.227,0.571,,0.511,0.476,0.402
NCI-H1650,0.91,1.19,0.974,0.966,1.22,,,,,,0.298,0.375,0.28,0.182,0.249,0.451,0.424,0.411,0.415,0.361
NCI-H1703,0.638,0.701,0.656,0.811,0.674,1.04,1.13,1.1,0.696,0.741,,,,,,,,,,
NCI-H1793,,,,,,0.785,0.99,0.747,0.919,0.679,0.321,0.271,0.286,0.237,0.309,0.479,0.457,0.451,0.423,0.376
NCI-H2170,1.14,1.22,1.2,1.16,1.34,,,,,,0.426,0.389,0.416,0.427,0.39,0.434,0.453,0.466,0.456,0.499
NCI-H2228,0.407,0.433,0.587,0.294,0.428,0.622,0.447,1.08,0.55,0.609,0.645,0.885,0.922,0.638,0.738,,,,,
NCI-H2342,,,,,,,,,,,0.523,0.529,0.513,0.666,0.611,0.725,0.808,0.714,0.758,0.815
SW 900,,,,,,,,,,,0.52,0.528,0.534,0.453,0.528,0.447,0.421,0.371,0.469,0.43
